# Reference: ChEMBL document CHEMBL1201862, “PubChem BioAssay data set” (2004)
# Active and inactive are the calls of the source.
# Tests used:
# [1] = Luminescence Cell-Based Dose Response HTS to Identify Inhibitors of 5'UTR Stem-Loop Driven Prion Protein mRNA Translation in H4 Neuroglioblastoma Cells. [Related pubchem assays: 1827 (Project Summary), 1813 (Primary HTS)]; assay type: functional
# [2] = test system: HeLa; experiment: HeLa cell cytotoxicity, dose response, cytotoxicity control, ATP luminescence, cherry-pick samples (AID 687004); assay type: functional, cell-based; details: Homo sapiens
# [3] = test system: INS1; experiment: beta cell apoptosis inhibitors, cytokine rescue, dose response, luminescence, retest (AID 449756); assay type: functional, cell-based; details: Rattus norvegicus;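 further: cell death triggered by IL-1 beta plus TNF-alpha plus IFN-gamma mixture; protective hits raise ATP signal compared with cytokine alone wells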
# [4] = inhibitors of SNCA 5'UTR-driven reporter translation, confirmation, H4 neuroglioma cells, luminescence (AID 1988); assay type: functional, cell-based
# [5] = inhibitors of firefly luciferase expression or activity, dose response, H4 neuroglioma cells, luminescence (AID 1990); assay type: functional, cell-based
# [6] = target: Dual specificity protein phosphatase 3 (Homo sapiens, UniProt P51452); experiment: VHR phosphatase inhibition, dose response, selectivity assay for STEP inhibitor project, biochemical (AID 602374); assay type: functional; details: read-out: IC50_Mean
# Chain of Dual specificity protein phosphatase 3 (P51452 whole entry): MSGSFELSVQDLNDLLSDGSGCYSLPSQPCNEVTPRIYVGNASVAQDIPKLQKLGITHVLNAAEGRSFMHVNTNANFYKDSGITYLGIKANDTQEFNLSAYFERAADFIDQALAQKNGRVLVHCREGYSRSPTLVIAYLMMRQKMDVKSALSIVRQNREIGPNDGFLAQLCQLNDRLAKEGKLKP
# [7] = target: T1, Low molecular weight phosphotyrosine protein phosphatase (Homo sapiens, UniProt P24666); assay type: functional; details: read-out: IC50_Mean
# T1 sequence (P24666 whole entry): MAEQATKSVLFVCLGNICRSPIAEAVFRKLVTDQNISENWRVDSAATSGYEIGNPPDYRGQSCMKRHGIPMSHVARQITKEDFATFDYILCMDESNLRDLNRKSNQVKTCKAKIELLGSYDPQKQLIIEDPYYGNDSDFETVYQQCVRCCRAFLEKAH
# [8] = target: Tyrosine-protein phosphatase non-receptor type 5 (Homo sapiens, UniProt P54829); experiment: STEP phosphatase inhibitors, confirmation, biochemical, fluorescence intensity, uHTS hits (AID 602372); assay type: functional; details: read-out: IC50_Mean
# Chain of Tyrosine-protein phosphatase non-receptor type 5 (P54829 whole entry): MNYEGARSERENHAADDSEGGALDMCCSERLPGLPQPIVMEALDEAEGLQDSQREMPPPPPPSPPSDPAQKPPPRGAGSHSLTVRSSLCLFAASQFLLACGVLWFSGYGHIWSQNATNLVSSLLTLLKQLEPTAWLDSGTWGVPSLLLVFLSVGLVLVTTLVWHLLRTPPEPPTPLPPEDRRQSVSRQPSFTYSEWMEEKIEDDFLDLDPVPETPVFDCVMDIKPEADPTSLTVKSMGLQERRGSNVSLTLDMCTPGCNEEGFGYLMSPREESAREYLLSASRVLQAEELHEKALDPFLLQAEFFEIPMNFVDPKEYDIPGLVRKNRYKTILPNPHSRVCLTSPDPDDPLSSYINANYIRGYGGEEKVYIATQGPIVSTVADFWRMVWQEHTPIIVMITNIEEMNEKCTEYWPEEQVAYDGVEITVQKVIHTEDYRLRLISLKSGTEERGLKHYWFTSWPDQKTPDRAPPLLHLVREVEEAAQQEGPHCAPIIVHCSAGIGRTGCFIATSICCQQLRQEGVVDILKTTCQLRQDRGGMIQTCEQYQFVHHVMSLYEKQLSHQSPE
# [9] = target: T1, Low molecular weight phosphotyrosine protein phosphatase; assay type: functional; details: read-out: IC50_Mean; remark: listed apart in the source
# [10] = target: Tyrosine-protein phosphatase non-receptor type 11 (Homo sapiens, UniProt Q06124); experiment: SHP2 phosphatase inhibition, dose response, selectivity assay for STEP inhibitor project, biochemical (AID 602367); assay type: functional; details: read-out: IC50_Mean
# Chain of Tyrosine-protein phosphatase non-receptor type 11 (Q06124 whole entry, the tested form may be a part): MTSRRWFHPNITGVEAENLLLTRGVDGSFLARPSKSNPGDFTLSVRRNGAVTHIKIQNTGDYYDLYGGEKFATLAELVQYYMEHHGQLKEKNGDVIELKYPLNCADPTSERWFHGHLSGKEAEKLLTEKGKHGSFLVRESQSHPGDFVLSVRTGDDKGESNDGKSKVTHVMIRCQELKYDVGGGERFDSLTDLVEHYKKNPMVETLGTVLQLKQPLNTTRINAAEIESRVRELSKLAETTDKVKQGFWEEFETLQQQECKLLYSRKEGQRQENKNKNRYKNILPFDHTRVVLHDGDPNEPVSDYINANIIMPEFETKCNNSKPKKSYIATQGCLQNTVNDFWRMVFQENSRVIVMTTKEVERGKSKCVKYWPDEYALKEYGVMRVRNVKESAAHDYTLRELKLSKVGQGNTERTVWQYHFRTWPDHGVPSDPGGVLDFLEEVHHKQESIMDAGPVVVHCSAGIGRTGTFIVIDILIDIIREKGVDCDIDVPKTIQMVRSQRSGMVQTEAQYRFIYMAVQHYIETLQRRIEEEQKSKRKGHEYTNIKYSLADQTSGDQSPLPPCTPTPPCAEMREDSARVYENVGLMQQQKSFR
# [11] = target: T2, Tyrosine-protein phosphatase non-receptor type 22 (Homo sapiens, UniProt Q9Y2R2); experiment: LYP phosphatase inhibition for selectivity, dose response, selectivity assay for LMPTP inhibitor project, biochemical, fluorescence, LYP catalytic domain (AID 652006); assay type: functional; details: read-out: IC50_Mean
# T2 sequence (Q9Y2R2 whole entry): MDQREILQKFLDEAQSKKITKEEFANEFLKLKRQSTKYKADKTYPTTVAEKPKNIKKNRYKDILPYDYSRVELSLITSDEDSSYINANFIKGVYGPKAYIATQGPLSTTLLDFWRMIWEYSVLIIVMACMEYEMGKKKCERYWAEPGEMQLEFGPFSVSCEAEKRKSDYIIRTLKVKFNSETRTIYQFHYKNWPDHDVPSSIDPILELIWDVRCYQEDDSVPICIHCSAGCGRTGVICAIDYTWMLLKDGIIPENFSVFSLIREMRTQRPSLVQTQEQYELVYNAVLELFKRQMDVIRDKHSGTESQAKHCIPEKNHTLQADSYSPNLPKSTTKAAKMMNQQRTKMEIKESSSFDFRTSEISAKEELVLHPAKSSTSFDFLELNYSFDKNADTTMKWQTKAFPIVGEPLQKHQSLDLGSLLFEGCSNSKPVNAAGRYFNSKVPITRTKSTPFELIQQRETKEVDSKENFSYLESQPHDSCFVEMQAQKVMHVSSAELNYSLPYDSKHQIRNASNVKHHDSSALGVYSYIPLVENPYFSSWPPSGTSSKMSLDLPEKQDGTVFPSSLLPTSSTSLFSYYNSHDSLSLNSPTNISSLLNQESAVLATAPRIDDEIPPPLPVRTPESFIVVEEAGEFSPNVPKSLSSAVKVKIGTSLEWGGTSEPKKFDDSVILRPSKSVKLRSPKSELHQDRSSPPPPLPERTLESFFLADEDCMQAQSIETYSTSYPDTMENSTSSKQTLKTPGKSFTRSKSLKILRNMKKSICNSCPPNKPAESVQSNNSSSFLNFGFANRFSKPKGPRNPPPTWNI
# [12] = target: T2, Tyrosine-protein phosphatase non-receptor type 22; experiment: PTPN22 phosphatase inhibition, dose response, selectivity assay for STEP inhibitor project, biochemical (AID 624241); assay type: functional
# [13] = HEK293T cytotoxicity, dose response, cytotoxicity control for miR-122 modulator project, cell-based, inhibitor set, cherry-pick, set 2 (AID 720697); assay type: functional
# [14] = target: T3, DNA repair protein RAD52 homolog (Homo sapiens, UniProt P43351); assay type: functional, biochemical
# T3 sequence (P43351 whole entry): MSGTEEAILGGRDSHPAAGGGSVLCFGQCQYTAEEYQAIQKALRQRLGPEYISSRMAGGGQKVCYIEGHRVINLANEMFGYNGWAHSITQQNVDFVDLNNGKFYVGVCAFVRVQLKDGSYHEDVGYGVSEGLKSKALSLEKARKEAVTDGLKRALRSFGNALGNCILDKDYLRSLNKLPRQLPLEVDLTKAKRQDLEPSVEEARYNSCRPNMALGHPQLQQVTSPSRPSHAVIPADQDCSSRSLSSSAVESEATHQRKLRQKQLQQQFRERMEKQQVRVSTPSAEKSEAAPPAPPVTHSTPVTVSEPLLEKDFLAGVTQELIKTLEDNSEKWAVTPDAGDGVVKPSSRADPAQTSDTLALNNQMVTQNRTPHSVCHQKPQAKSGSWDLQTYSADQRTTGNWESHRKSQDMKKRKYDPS
# [15] = HEK293T cytotoxicity, dose response, cytotoxicity control for miR-122 modulator project, cell-based, activator set, cherry-pick (AID 720690); assay type: functional;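 further: HEK293T human cells scored for general mammalian cytotoxicity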
# [16] = miR-122 activators in hepatoma reporter cells, dose response, cell-based, Huh7 psiCHECK-miR122, Renilla luciferase, cherry-picked (AID 651956); assay type: functional;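 further: huh7 hepatoma cells stably carrying a psiCHECK-2 miR-122 sensor plasmid; renilla luciferase signal reporting endogenous miR-122 activity after 48 h compound exposure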
# [17] = target: Protein Wnt-3a (Mus musculus, UniProt P27467); experiment: SAR analysis of small molecule antagonists of Gli-SUFU in a Wnt3a luminescent reporter assay.; assay type: functional
# Chain of Protein Wnt-3a (P27467 whole entry): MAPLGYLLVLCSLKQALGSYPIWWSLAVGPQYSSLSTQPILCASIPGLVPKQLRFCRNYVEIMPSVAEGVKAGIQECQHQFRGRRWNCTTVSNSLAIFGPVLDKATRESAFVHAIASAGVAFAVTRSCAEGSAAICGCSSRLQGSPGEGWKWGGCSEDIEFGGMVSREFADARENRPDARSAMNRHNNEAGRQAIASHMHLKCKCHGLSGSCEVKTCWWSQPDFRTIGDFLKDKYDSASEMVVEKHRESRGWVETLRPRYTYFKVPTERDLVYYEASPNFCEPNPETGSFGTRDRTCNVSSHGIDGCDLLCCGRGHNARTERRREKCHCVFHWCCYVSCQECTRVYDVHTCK
# [18] = T. cruzi intracellular amastigote growth inhibition, dose response, imaging, CA-I/72 strain, bovine embryo skeletal muscle, dry powder (AID 651885); assay type: functional, cell-based
# [19] = target: Beta-galactosidase (Escherichia coli, UniProt Q8VNN2); experiment: Dose response counterscreen for EBI2 assay utilizing the enzyme, b-galactosidase.; assay type: functional
# Chain of Beta-galactosidase (Q8VNN2 whole entry): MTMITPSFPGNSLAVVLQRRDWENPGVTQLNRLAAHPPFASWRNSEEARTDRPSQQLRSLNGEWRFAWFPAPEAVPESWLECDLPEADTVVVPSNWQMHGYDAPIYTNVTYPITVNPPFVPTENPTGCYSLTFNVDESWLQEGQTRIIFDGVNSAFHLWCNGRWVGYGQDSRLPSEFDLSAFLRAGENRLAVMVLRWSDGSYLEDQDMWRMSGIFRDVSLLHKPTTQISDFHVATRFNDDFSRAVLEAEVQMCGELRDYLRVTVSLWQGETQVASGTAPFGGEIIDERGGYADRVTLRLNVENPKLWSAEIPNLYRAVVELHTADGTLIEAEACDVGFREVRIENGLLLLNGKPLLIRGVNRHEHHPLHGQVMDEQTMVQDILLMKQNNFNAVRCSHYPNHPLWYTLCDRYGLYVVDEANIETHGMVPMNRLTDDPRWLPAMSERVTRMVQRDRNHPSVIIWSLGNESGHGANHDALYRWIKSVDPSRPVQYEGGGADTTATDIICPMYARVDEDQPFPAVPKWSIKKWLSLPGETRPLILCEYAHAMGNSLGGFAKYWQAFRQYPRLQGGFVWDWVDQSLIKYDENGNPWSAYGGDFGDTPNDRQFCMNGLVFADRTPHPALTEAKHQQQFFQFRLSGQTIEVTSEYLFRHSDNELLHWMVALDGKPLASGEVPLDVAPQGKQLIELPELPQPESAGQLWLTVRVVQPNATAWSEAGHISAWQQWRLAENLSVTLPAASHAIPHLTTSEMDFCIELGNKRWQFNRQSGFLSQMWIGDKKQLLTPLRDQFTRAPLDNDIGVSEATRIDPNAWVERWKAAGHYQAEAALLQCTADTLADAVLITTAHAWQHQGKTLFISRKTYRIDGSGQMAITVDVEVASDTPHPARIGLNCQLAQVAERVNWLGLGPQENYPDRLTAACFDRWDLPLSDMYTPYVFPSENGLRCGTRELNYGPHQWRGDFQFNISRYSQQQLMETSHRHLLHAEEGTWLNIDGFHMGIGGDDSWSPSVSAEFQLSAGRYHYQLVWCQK
structure (smiles),measurement,setting,value
CC(=O)c1sc(NC(=O)C2(F)C(F)(F)C(F)(F)C(F)(F)C(F)(F)C2(F)F)nc1C,EC50,[1],> 120 µM (not active)
same,AC50,[2],22.6 µM (active)
same,AC50,[3],4.23 µM (active)
same,EC50,[4],32.2 µM (active)
same,EC50,[5],> 120 µM (not active)
O=C(N/N=C/c1ccc(Br)s1)c1cccc([N+](=O)[O-])c1,IC50,[6],3.4 µM (active)
same,IC50,[7],9.2 µM (active)
same,IC50,[8],7.95 µM (active)
same,IC50,[9],9.56 µM (active)
same,IC50,[10],2.15 µM (active)
same,IC50,[11],18.2 µM (active)
same,IC50,[12],64.9 µM (inactive)
NCC12CC3CC(C1)CC(c1ccc(Br)cc1)(C3)C2,AC50,[13],5.67 µM (active)
same,AC50,[14],32 µM (active)
same,AC50,[15],17.1 µM (active)
same,AC50,[16],16.3 µM (active)
CC1CCN(c2cc(NC(=O)c3ccccc3)ncn2)CC1,IC50,[17],> 21.8 µM (inactive)
CC(C)N1C[C@H](C)[C@@H](CN(C)C(=O)OC(C)(C)C)Oc2c(NC(=O)c3ccccn3)cccc2C1=O,IC50,[18],10.3 µM (inconclusive)
COc1ccc(N2CCN(C(=O)c3ccc4c(c3)CC(c3ccccc3)OC4=O)CC2)cc1 (centres undefined),IC50,[19],> 80 µM (inactive)
